Experimental data from US20080214445A1, “Method of Treating a Solid Tumor Disease Comprising Administering a Combination Comprising Imatinib and an Inhibitor of an Efflux Pump Active at the Blood Brain Barrier or Demethyl Imatinib” (priority 2005, published 2008).

Tests used:
[1] = tested on: Rat C6 glioma cells; assay: Accumulation of CGP74588 into rat C6 glioma cells; assay type: cell-based; details: for average fold increase of CGP74588 accumulation: 15 min pre-incubation, 1 min incubation with CGP74588, rat C6 cells
Protocol: Rat C6 glioma cells are used as a model for glioma in in vitro or in vivo studies, to investigate the effect of this combination on cell proliferation.
Rat C6 glioma cells are maintained in high glucose Dulbecco's modified medium supplemented with 10% fetal calf serum and […] L-Glutamine in a humidified atmosphere of 95% air-5% CO2. All accumulation assays are conducted on cultures at confluence. For this purpose, the cells are seeded on 24-well plates at a density of 100×10^3 cells/cm^2 and left to proliferate in culture medium for 48 h.
For competition assays, the cultures are pre-incubated with various concentrations of the different competitors for 15 min. […] The cellular accumulation of 1.5 μM CGP74588 is also studied in C6 cells that have been pre-incubated with hydroxyurea (1, 10, 100 or 1000 μM) for 48 h.

[2] = FVB wild-type mice; co-perfusion of valspodar 10 μM with imatinib 0.5 μM
[3] = Blood and brain pharmacokinetics in Hanover Wistar rats after intravenous [14C]STI571 with or without PSC833
Protocol: (§1) Blood, plasma, brain are collected for each animal.
(§2) All samples are analyzed for total radioactivity by liquid scintillation counting (LSC). In brief, 50 μL blood samples are successively mixed and incubated with 0.5 mL Soluene 350-isopropanol 1:1 (v/v), 0.2 mL H2O2 30% (overnight), 0.5 mL HCl 2N (20 min) and 5 mL IrgaSafe (Packard) (overnight). 50 μL plasma samples are successively mixed and incubated with 0.5 mL Soluene 350-isopropanol 1:1 (v/v) (overnight), 0.5 mL HCl 2N (20 min) and 5 mL IrgaSafe (overnight). 250 μL brain homogenate samples are treated by 2 mL Soluene 350 (overnight), 0.5 mL HCl 2N (20 min) and 17.5 mL Irgasafe (overnight). All samples are counted in Tricarb liquid scintillation analyzers (Packard).
(§3) All blood samples are spiked with 100 μL of water for hemolysis whereas all other samples are directly analyzed. […] The organic layer is separated and evaporated in a vacuum centrifuge. The residues are dissolved in 250 μL of acetonitrile-water (30:70 v/v) followed by 75 μl of n-hexane. […] The effluent is monitored by an UV-detector set at 270 nm.

[4] = Hanover Wistar, rat, in vivo, iv
Protocol: as §1, §2, §3

[5] = tested on: P-glycoprotein and Breast-Cancer Resistance Protein (suggested by experiments in mdr1a1b(-/-) mice); assay: in vivo; details: FVB, mouse
[6] = in vivo; details: Hanover Wistar, rat, iv, 12.5 mg/kg
Protocol: as §1, §2, §3

[7] = target: T1, BCRP (Homo sapiens, UniProt Q9UNQ0); assay: BCRP efflux pump inhibition / transport
T1 sequence (Q9UNQ0 1-655): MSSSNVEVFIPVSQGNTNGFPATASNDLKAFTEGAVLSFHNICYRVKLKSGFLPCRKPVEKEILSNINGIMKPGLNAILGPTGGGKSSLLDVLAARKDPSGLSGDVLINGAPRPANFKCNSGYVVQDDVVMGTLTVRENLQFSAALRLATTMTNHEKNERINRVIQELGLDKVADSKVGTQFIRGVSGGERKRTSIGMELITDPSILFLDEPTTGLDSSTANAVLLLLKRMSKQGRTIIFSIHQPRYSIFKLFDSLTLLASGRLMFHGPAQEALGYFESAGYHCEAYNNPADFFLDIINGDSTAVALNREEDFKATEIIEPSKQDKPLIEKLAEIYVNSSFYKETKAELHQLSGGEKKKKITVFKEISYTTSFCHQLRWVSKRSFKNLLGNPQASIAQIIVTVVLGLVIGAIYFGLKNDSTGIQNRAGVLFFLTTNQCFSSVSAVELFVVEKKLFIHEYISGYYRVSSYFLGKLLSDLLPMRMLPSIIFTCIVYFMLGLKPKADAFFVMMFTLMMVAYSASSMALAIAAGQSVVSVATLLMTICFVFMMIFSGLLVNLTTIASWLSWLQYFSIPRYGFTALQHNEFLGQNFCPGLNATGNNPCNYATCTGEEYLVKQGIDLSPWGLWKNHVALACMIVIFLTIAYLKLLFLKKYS

[8] = Concentration of STI571 in brain, Mean
[9] = Concentration of STI571 in brain, individual data

SMILES: C/C=C/C[C@@H](C)C(=O)[C@H]1C(=O)N[C@@H](C(C)C)C(=O)N(C)CC(=O)N(C)[C@@H](CC(C)C)C(=O)N[C@@H](C(C)C)C(=O)N(C)[C@@H](CC(C)C)C(=O)N[C@@H](C)C(=O)N[C@H](C)C(=O)N(C)[C@@H](CC(C)C)C(=O)N(C)[C@@H](CC(C)C)C(=O)N(C)[C@@H](C(C)C)C(=O)N1C [valspodar, [3′-desoxy-3′-oxo-MeBmt]^1-[Val]^2-Ciclosporin A]
- average fold increase of CGP74588 accumulation ([1]; inhibitor 1 μM): 1.7 fold
- average fold increase of CGP74588 accumulation ([1]; inhibitor 10 μM): 2.3 fold
- effect on distribution of imatinib into the brain [2]: markedly enhance
- effect on the elimination slope of unchanged STI571 from brain to blood ([3]; 12.5 mg/kg STI571 and 10 mg/kg PSC833 i.v.): does not significantly modify
- impact on the plasma pharmacokinetics of imatinib ([3]; valspodar 10 mg/kg i.v. with imatinib 12.5 mg/kg i.v.): no significant impact

SMILES: Cc1ccc(NC(=O)c2ccc(CN3CCN(C)CC3)cc2)cc1Nc1nccc(-c2cccnc2)n1 [STI571, N-{5-[4-(4-methyl-piperazino-methyl)-benzoylamido]-2-methylphenyl}-4-(3-pyridyl)-2-pyrimidine-amine]
- time post dose at which brain Cmax is reached [4]: 15 min
- Km [5]: 5 to 10 µM
- Cmax [6]: 893 ng/g
- Tmax [6]: 15 min
- concentration at 0.25 h [6, 8]: 893 ng/g
- concentration at 0.5 h [6, 8]: 533 ng/g
- concentration at 1 h [6, 8]: 550 ng/g
- concentration at 2 h [6, 8]: 333 ng/g
- concentration at 4 h [6, 8]: 115 ng/g
- concentration at 8 h [6, 8]: 38 ng/g
- concentration at 1 h [6, 9]: 540 ng/g
- concentration at 2 h [6, 9]: 402 ng/g
- concentration at 4 h [6, 9]: 102 ng/g
- concentration at 8 h [6, 9]: 52 ng/g

SMILES: COc1cc2c(cc1OC)CN(CCc1ccc(NC(=O)c3cccc4c(=O)c5cccc(OC)c5[nH]c34)cc1)CC2 [elacridar]
- average fold increase of CGP74588 accumulation ([1]; inhibitor 1 μM): 1.7 fold
- average fold increase of CGP74588 accumulation ([1]; inhibitor 10 μM): 2.3 fold

SMILES: Cl.Cl.Cl.O[C@@H](COc1cccc2ncccc12)CN1CCN(C2c3ccccc3[C@@H]3[C@H](c4ccccc42)C3(F)F)CC1 (stereo partly drawn) [zosuquidar, 1-[4-(1,1-difluor-1,1aR,6S,10bS-tetrahydrodibenzo[a,e]-cyclo-propa[c]cyclohepten-6-yl)piperazin-1-yl]-3-(chinolin-5-yloxy)-2(R)-propanol-trihydrochloride]
- average fold increase of CGP74588 accumulation ([1]; inhibitor 1 μM): 1.7 fold
- average fold increase of CGP74588 accumulation ([1]; inhibitor 10 μM): 2.3 fold

SMILES: Cc1ccc(NC(=O)c2ccc(CN3CCNCC3)cc2)cc1Nc1nccc(-c2cccnc2)n1 [CGP74588, N-{5-[4-(piperazino-methyl)-benzoylamido]-2-methylphenyl}-4-(3-pyridyl)-2-pyrimidine-amine]
- accumulation in rat C6 cells ([1]; CGP74588 0.5-50 μM): concentration dependant
- BCRP inhibition [7]: not
- transport by efflux pump [7]: dominated by BCRP
